From PubChem BioAssay (NCI)
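Step 1: Grow cells in 96-well plates. Step 2: Expose to compound for 48 hours at 5 concentrations. Step 3: Interpolate endpoints linearly; if unreached, use highest concentration. GI50 = concentration required for 50% inhibition of growth. TGI: concentration producing complete growth inhibition.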

Experiments:
Assay in all cases: growth of human tumour cells (NCI), 48 h; in the data active = GI50 below about 0.43 µM; inactive = the rest
HCC-2998 colon = tested on: HCC-2998 colon
RXF 393 renal = tested on: RXF 393 renal
OVCAR-5 ovarian = tested on: OVCAR-5 ovarian
SF-268 CNS = tested on: SF-268 CNS
RPMI-8226 leukemia = tested on: RPMI-8226 leukemia
U251 CNS = tested on: U251 CNS
OVCAR-8 ovarian = tested on: OVCAR-8 ovarian
ACHN renal = tested on: ACHN renal
SNB-19 CNS = tested on: SNB-19 CNS
KM12 colon = tested on: KM12 colon
PC-3 prostate = tested on: PC-3 prostate
UACC-62 melanoma = tested on: UACC-62 melanoma
DU-145 prostate = tested on: DU-145 prostate
NCI-H226 lung = tested on: NCI-H226 lung
A549 NSCLC = tested on: A549 NSCLC
786-0 renal = tested on: 786-0 renal
UACC-257 melanoma = tested on: UACC-257 melanoma
K-562 leukemia = tested on: K-562 leukemia
CCRF-CEM leukemia = tested on: CCRF-CEM leukemia
SF-539 CNS = tested on: SF-539 CNS
HCT-116 colon = tested on: HCT-116 colon
HOP-62 NSCLC = tested on: HOP-62 NSCLC
SF-295 CNS = tested on: SF-295 CNS
UO-31 renal = tested on: UO-31 renal
SW-620 colon = tested on: SW-620 colon
MALME-3M melanoma = tested on: MALME-3M melanoma
SK-MEL-28 melanoma = tested on: SK-MEL-28 melanoma
SNB-75 CNS = tested on: SNB-75 CNS
SK-MEL-5 melanoma = tested on: SK-MEL-5 melanoma
BT-549 breast = tested on: BT-549 breast
OVCAR-3 ovarian = tested on: OVCAR-3 ovarian
MDA-MB-435 = tested on: MDA-MB-435
SR leukemia = tested on: SR leukemia
M14 melanoma = tested on: M14 melanoma
MCF7 breast = tested on: MCF7 breast
NCI-H460 lung = tested on: NCI-H460 lung
OVCAR-4 ovarian = tested on: OVCAR-4 ovarian
HS 578T breast = tested on: HS 578T breast
NCI/ADR-RES ovarian = tested on: NCI/ADR-RES ovarian
MOLT-4 leukemia = tested on: MOLT-4 leukemia
HCT-15 colon = tested on: HCT-15 colon
SN12C renal = tested on: SN12C renal
T-47D breast = tested on: T-47D breast
A498 renal = tested on: A498 renal
NCI-H522 lung = tested on: NCI-H522 lung
HL-60(TB) leukemia = tested on: HL-60(TB) leukemia
MDA-MB-231 breast = tested on: MDA-MB-231 breast
NCI-H23 lung = tested on: NCI-H23 lung
CAKI-1 renal = tested on: CAKI-1 renal
HT29 colon = tested on: HT29 colon
SK-OV-3 ovarian = tested on: SK-OV-3 ovarian
TK-10 renal = tested on: TK-10 renal
IGROV1 ovarian = tested on: IGROV1 ovarian
COLO 205 colon = tested on: COLO 205 colon

COc1cc(-c2cc(-c3nc4ccc(F)cc4[nH]3)[nH]n2)cc(OC)c1OC
9.36 µM: TGI (RXF 393 renal)
6.89 µM: TGI (NCI-H23 lung)
2.8 µM: TGI (SK-MEL-5 melanoma)
4.31 µM: TGI (NCI-H226 lung)
4.27 µM: TGI (OVCAR-4 ovarian)
3.26 µM: TGI (RPMI-8226 leukemia)
6.97 µM: TGI (UO-31 renal)
8.44 µM: TGI (MALME-3M melanoma)
6.28 µM: TGI (BT-549 breast)
32.7 µM: TGI (K-562 leukemia)
5.74 µM: TGI (CCRF-CEM leukemia)
18.7 µM: TGI (HCC-2998 colon)
4.82 µM: TGI (UACC-62 melanoma) | TGI (MOLT-4 leukemia)
5.84 µM: TGI (PC-3 prostate)
6.84 µM: TGI (CAKI-1 renal)
11.9 µM: TGI (A498 renal)
32 µM: TGI (SR leukemia)
18.8 µM: TGI (SNB-19 CNS)
3.09 µM: TGI (T-47D breast)
5.54 µM: TGI (SNB-75 CNS)
8.05 µM: TGI (HOP-62 NSCLC)
9.2 µM: TGI (NCI/ADR-RES ovarian)
13 µM: TGI (DU-145 prostate)
12 µM: TGI (U251 CNS)
> 100 µM: TGI (HS 578T breast)
15.2 µM: TGI (MDA-MB-231 breast)
9.59 µM: TGI (SK-OV-3 ovarian)
10.8 µM: TGI (HCT-15 colon)
9.67 µM: TGI (SF-295 CNS)
12.9 µM: TGI (SN12C renal)
24 µM: TGI (OVCAR-5 ovarian)
7.62 µM: TGI (M14 melanoma)
6.52 µM: TGI (SK-MEL-28 melanoma)
5.15 µM: TGI (NCI-H522 lung)
8.81 µM: TGI (A549 NSCLC)
10.4 µM: TGI (HCT-116 colon)
10 µM: TGI (OVCAR-3 ovarian)
5.03 µM: TGI (OVCAR-8 ovarian)
14.4 µM: TGI (SF-539 CNS)
10.3 µM: TGI (COLO 205 colon)
10.7 µM: TGI (IGROV1 ovarian)
28.3 µM: TGI (HT29 colon)
6.23 µM: TGI (KM12 colon)
20.5 µM: TGI (SW-620 colon)
5.44 µM: TGI (MDA-MB-435)
14.6 µM: TGI (786-0 renal)
5.9 µM: TGI (UACC-257 melanoma)
11.8 µM: TGI (NCI-H460 lung)
6.37 µM: TGI (MCF7 breast)
16 µM: TGI (TK-10 renal)
inactive: GI50 (HCC-2998 colon) 5.96 µM | GI50 (RXF 393 renal) 1.85 µM | GI50 (OVCAR-5 ovarian) 11.1 µM | GI50 (SF-268 CNS) 3.23 µM | GI50 (RPMI-8226 leukemia) 1.24 µM | GI50 (U251 CNS) 2.61 µM | GI50 (OVCAR-8 ovarian) 1.99 µM | GI50 (ACHN renal) 2.54 µM | GI50 (SNB-19 CNS) 5.47 µM | GI50 (KM12 colon) 2.29 µM | GI50 (PC-3 prostate) 1.63 µM | GI50 (UACC-62 melanoma) 1.8 µM | GI50 (DU-145 prostate) 3.17 µM | GI50 (NCI-H226 lung) 1.28 µM | GI50 (A549 NSCLC) 2.46 µM | GI50 (786-0 renal) 3.97 µM | GI50 (UACC-257 melanoma) 2.15 µM | GI50 (K-562 leukemia) 2.87 µM | GI50 (CCRF-CEM leukemia) 1.98 µM | GI50 (SF-539 CNS) 3.58 µM | GI50 (HCT-116 colon) 2.81 µM | GI50 (HOP-62 NSCLC) 2.37 µM | GI50 (SF-295 CNS) 2.51 µM | GI50 (UO-31 renal) 1.74 µM | GI50 (SW-620 colon) 4.11 µM | GI50 (MALME-3M melanoma) 1.96 µM | GI50 (SK-MEL-28 melanoma) 2.39 µM | GI50 (SNB-75 CNS) 1.76 µM | GI50 (SK-MEL-5 melanoma) 1.39 µM | GI50 (BT-549 breast) 1.84 µM | GI50 (OVCAR-3 ovarian) 2.95 µM | GI50 (MDA-MB-435) 2.12 µM | GI50 (SR leukemia) 3.45 µM | GI50 (M14 melanoma) 2.36 µM | GI50 (MCF7 breast) 2.11 µM | GI50 (NCI-H460 lung) 2.9 µM | GI50 (OVCAR-4 ovarian) 1.29 µM | GI50 (HS 578T breast) 3.32 µM | GI50 (NCI/ADR-RES ovarian) 3.19 µM | GI50 (MOLT-4 leukemia) 2.1 µM | GI50 (HCT-15 colon) 2.79 µM | GI50 (SN12C renal) 2.92 µM | GI50 (T-47D breast) 0.764 µM | GI50 (A498 renal) 1.86 µM | GI50 (NCI-H522 lung) 1.73 µM | GI50 (HL-60(TB) leukemia) 2.52 µM | GI50 (MDA-MB-231 breast) 3.05 µM | GI50 (NCI-H23 lung) 2.35 µM | GI50 (CAKI-1 renal) 1.8 µM | GI50 (HT29 colon) 4.4 µM | GI50 (SK-OV-3 ovarian) 3.32 µM | GI50 (TK-10 renal) 4.39 µM | GI50 (IGROV1 ovarian) 2.27 µM | GI50 (COLO 205 colon) 3.26 µM
11.2 µM: TGI (SF-268 CNS)
7.71 µM: TGI (HL-60(TB) leukemia)
11.6 µM: TGI (ACHN renal)

COc1ccc(CCc2nc3cc(-c4c(C)noc4C)ccc3n2CCN2CCOCC2)cc1
49.4 µM: TGI (RPMI-8226 leukemia)
82.4 µM: TGI (RXF 393 renal)
> 100 µM: TGI (OVCAR-5 ovarian) | TGI (SF-268 CNS) | TGI (U251 CNS) | TGI (OVCAR-8 ovarian) | TGI (ACHN renal) | TGI (SNB-19 CNS) | TGI (KM12 colon) | TGI (PC-3 prostate) | TGI (UACC-62 melanoma) | TGI (DU-145 prostate) | TGI (NCI-H226 lung) | TGI (A549 NSCLC) | TGI (786-0 renal) | TGI (UACC-257 melanoma) | TGI (K-562 leukemia) | TGI (CCRF-CEM leukemia) | TGI (SF-539 CNS) | TGI (HCT-116 colon) | TGI (HOP-62 NSCLC) | TGI (SF-295 CNS) | TGI (UO-31 renal) | TGI (SW-620 colon) | TGI (MALME-3M melanoma) | TGI (SK-MEL-28 melanoma) | TGI (SNB-75 CNS) | TGI (BT-549 breast) | TGI (MDA-MB-435) | TGI (SR leukemia) | TGI (M14 melanoma) | TGI (MCF7 breast) | TGI (NCI-H460 lung) | TGI (OVCAR-4 ovarian) | TGI (HS 578T breast) | TGI (NCI/ADR-RES ovarian) | TGI (MOLT-4 leukemia) | TGI (HCT-15 colon) | TGI (SN12C renal) | TGI (T-47D breast) | TGI (HL-60(TB) leukemia) | TGI (MDA-MB-231 breast) | TGI (NCI-H23 lung) | TGI (CAKI-1 renal) | TGI (HT29 colon) | TGI (SK-OV-3 ovarian) | TGI (TK-10 renal) | TGI (IGROV1 ovarian) | TGI (COLO 205 colon)
32.8 µM: TGI (A498 renal)
97.5 µM: TGI (HCC-2998 colon)
59.8 µM: TGI (OVCAR-3 ovarian)
43.8 µM: TGI (SK-MEL-5 melanoma)
inactive: GI50 (HCC-2998 colon) 19.9 µM | GI50 (RXF 393 renal) 18.7 µM | GI50 (OVCAR-5 ovarian) 71.8 µM | GI50 (SF-268 CNS) 41.6 µM | GI50 (RPMI-8226 leukemia) 6.12 µM | GI50 (U251 CNS) 38.7 µM | GI50 (OVCAR-8 ovarian) 35.9 µM | GI50 (ACHN renal) 25.9 µM | GI50 (SNB-19 CNS) 35.5 µM | GI50 (KM12 colon) 17.5 µM | GI50 (PC-3 prostate) 16.3 µM | GI50 (UACC-62 melanoma) 11.1 µM | GI50 (DU-145 prostate) 86.2 µM | GI50 (NCI-H226 lung) 31.1 µM | GI50 (A549 NSCLC) 45 µM | GI50 (786-0 renal) 24.4 µM | GI50 (UACC-257 melanoma) 13.6 µM | GI50 (K-562 leukemia) 19.9 µM | GI50 (CCRF-CEM leukemia) 26.9 µM | GI50 (SF-539 CNS) 34.6 µM | GI50 (HCT-116 colon) 29.4 µM | GI50 (HOP-62 NSCLC) 44.6 µM | GI50 (SF-295 CNS) 23 µM | GI50 (UO-31 renal) 2.49 µM | GI50 (SW-620 colon) 58.1 µM | GI50 (MALME-3M melanoma) 6.64 µM | GI50 (SK-MEL-28 melanoma) 39.5 µM | GI50 (SNB-75 CNS) 2.47 µM | GI50 (SK-MEL-5 melanoma) 13.4 µM | GI50 (BT-549 breast) 40.5 µM | GI50 (OVCAR-3 ovarian) 20.3 µM | GI50 (MDA-MB-435) 14.9 µM | GI50 (SR leukemia) 7.01 µM | GI50 (M14 melanoma) 21.6 µM | GI50 (MCF7 breast) 4.32 µM | GI50 (NCI-H460 lung) 65.1 µM | GI50 (OVCAR-4 ovarian) 5.28 µM | GI50 (HS 578T breast) 9.16 µM | GI50 (NCI/ADR-RES ovarian) 27.9 µM | GI50 (MOLT-4 leukemia) 34.5 µM | GI50 (HCT-15 colon) 12.5 µM | GI50 (SN12C renal) 34.9 µM | GI50 (T-47D breast) 16.1 µM | GI50 (A498 renal) 10.1 µM | GI50 (NCI-H522 lung) 12.4 µM | GI50 (HL-60(TB) leukemia) 10.4 µM | GI50 (MDA-MB-231 breast) 28.6 µM | GI50 (NCI-H23 lung) 45.3 µM | GI50 (CAKI-1 renal) 7.94 µM | GI50 (HT29 colon) 13.7 µM | GI50 (SK-OV-3 ovarian) 26 µM | GI50 (TK-10 renal) 10.1 µM | GI50 (IGROV1 ovarian) 22.9 µM | GI50 (COLO 205 colon) 12.7 µM
69.4 µM: TGI (NCI-H522 lung)
